Measured values as given in patent US7521536B2, “Glutamate transporter associated protein” (The Johns Hopkins University School of Medicine, priority 1999, dated 2009).

Assays:
EAAT4 [1] = assay: Na+-dependent glutamate uptake in EAAT4 expressing HEK cells transfected with PCTAIRE; type: cell-based
Experimental: Transfection of EAAT4 expressing HEK cells with PCTAIRE results in diminished Na^+-dependent glutamate uptake. HEK cells and EAAT4 expressing HEK cells were transfected with 1.0 μg of pCMV PCTAIRE plasmid, and allowed to express for 48 hours. Cell monolayers were then washed with tissue buffer (50 mM Tris, 320 mM sucrose, pH 7.4). The cells were then incubated for 4 min at 37° C. with 1 mL of either sodium-(120 mM NaCl, 25 mM NaHCO3, 5 mM KCl, 2 mM CaCl2, 1 mM KH2PO4, 1 mM MgSO4, 10% glucose and 10 μM glutamate or choline-(120 mM choline-Cl, 25 mM Tris-HCl, 5 mM KCl, 2 mM CaCl2, 1 mM KH2PO4, 1 mM MgSO4, 10% glucose and 10 μM glutamate) containing buffer. Glutamate uptake assays were then performed using L-[^3H]-Glutamate in the presence and absence of Na^+. After rinsing, cells were lysed in 0.1 N NaOH and lysate radioactivity measured using a scintillation counter. Protein content was measured and glutamate uptake calculated as the difference between Na^+ containing and sodium free values per mg of protein.
Inhibition of Na^+-dependent glutamate uptake by PCTAIRE is reversible using the cdk2 inhibitor olomucine. HEK cells expressing EAAT4 were transfected with 1.0 μg of pCMV PCTAIRE plasmid as described above, and allowed to express for 48 hours. Prior to glutamate uptake assay, cells were treated with 100 μM olomucine for 30 minutes at 37° C. as indicated. […]

GTRAP3-18 [2] = assay: intraventricular GTRAP3-18 antisense oligomers, cortical glutamate uptake; type: in vivo
Experimental: To examine modulation of EAAC1 by GTRAP3-18 in vivo, GTRAP3-18 antisense oligomers were administered intraventricularly. Sequences for the novel phosphodiester oligonucleotides used were: sense GTRAP3-18: 5′-GTGAACCTTGCCCGCTC-3′, antisense GTRAP3-18: 5′-GAGCGGGGCAAGGTTCAC-3′ Oligonucleotides (5 μg/μL), separately or in combination were administered intraventricularly over 3-11 days, by mini-osmotic pumps (Alza Corp., Palo Alto, Calif.) as described previously (Rothstein et al., (1994)).

GTRAP3-18 [3] = assay: intraventricular infusion of retinoic acid, cortical GTRAP3-18 and glutamate uptake; type: in vivo
Experimental: To test this hypothesis in vivo, retinoic acid was infused intraventricularly (1-20 μM; 0-20 pmol/μL). […] This effect is specifically due to decreased EAAC1 -mediated transport because it was not altered by the glutamate transport inhibitor dihydrokainic acid, at a concentration that predominantly effects GLT-1 (Robinson et al. (1998)). […] Retinoic acid had no effect on glutamate transport by cells expressing GLT-1 or EAAT4.

EAAT4 [4] = assay: cerebellar glutamate uptake after intra-cisternal injection of HSV amplicon vectors; type: in vivo, rat; conditions: inhibitor of GLT-1 mediated glutamate transport
GTRAP3-18 [5] = assay: GTRAP3-18 antisense oligomers transfected into HEK293 cells; type: cell-based
From the text: Western blot analyses and glutamate uptake assays reveal endogenous expression of EAAC1 and GTRAP3-18 protein in HEK cells, but no expression of other transporter subtypes, e.g., GLAST, GLT-1, or EAAT4. Antisense oligomers, targeted to the 5′-GTRAP3-18 transcript, were transfected into HEK293 cells.

EAAC1 = target: T1, EAAC1 (Rattus norvegicus, UniProt P51907); assay: sodium-dependent [3H]-glutamate transport in HEK293 cells co-expressing EAAC1 and GTRAP3-18; type: cell-based
T1 construct: For transient expression in HEK 293T cells, full-length EAAC1 cDNA was subcloned into the EcoR I/BamH I site; expressed in transfected cells; host or cells: HEK293 / HEK 293T, transient, pRK5
T1 sequence (P51907 1-523): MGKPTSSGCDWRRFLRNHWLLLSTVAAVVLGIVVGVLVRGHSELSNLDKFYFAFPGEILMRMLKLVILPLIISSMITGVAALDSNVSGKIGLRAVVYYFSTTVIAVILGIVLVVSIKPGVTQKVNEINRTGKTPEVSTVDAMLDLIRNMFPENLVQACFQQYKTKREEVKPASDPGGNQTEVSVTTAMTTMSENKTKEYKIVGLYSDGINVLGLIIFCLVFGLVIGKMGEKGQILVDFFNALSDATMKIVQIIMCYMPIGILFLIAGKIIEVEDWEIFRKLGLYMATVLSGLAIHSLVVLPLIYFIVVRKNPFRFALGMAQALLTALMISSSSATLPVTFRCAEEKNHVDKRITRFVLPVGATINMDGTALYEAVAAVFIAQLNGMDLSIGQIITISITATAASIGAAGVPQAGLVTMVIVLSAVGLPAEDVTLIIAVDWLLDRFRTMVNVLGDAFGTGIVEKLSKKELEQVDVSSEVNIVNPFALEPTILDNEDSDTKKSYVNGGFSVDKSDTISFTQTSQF
From the text: (§1) To test if GTRAP3-18 modulates EAAC1 function, sodium-dependent [^3H]-glutamate transport was studied in HEK293 cells co-expressing both proteins, 72 hrs after transfection (Rothstein et al. Neuron 16, 675-686 (1996); Lin et al., Neuron 20, 589-602 (1998)). Total glutamate transport progressively decreases with increasing GTRAP3-18 protein expression (FIG. 4). GTRAP3-18 negatively modulates EAAC1-mediated glutamate transport. GTRAP3-18 inhibited EAAC1-mediated transport, but had no effect on EAAT4 (n=6). The co-expression of GTRAP-3-18 has no effect on total EAAC1 protein expression. Analysis of HEK293 cells by confocal microscopy and surface biotinylation reveal no alteration in the membranous localization of EAAC1. Superoxide dismutase (SOD1) was used as a control. […] This effect is specific for EAAC1; co-expression of GTRAP3-18 with EAAT4 has no effect on transport activity. The inhibition of transport is not due to a decrease of EAAC1 protein level by the co-expression of GTRAP3-18, as quantitated by Western blotting. Similarly, the loss of EAAC1 activity is not due to altered protein trafficking; even at high levels of GTRAP3-18 expression, when little EAAC1-mediated transport is observed, EAAC1 surface expression is unaltered as determined by surface biotinylation and confocal microscopy.
To evaluate the biochemical nature of altered transport, kinetic analyses were performed with HEK293 cells co-expressing EAAC1 and GTRAP3-18. […] Similar results are observed with other cell lines (COS7 and C6 glioma).

EAAT4 [6] = target: T2, EAAT4 (Rattus norvegicus, UniProt O35921); assay: sodium-dependent [3H]-glutamate transport in HEK293 cells co-expressing EAAT4 and GTRAP3-18; type: cell-based
T2 sequence (O35921 1-561): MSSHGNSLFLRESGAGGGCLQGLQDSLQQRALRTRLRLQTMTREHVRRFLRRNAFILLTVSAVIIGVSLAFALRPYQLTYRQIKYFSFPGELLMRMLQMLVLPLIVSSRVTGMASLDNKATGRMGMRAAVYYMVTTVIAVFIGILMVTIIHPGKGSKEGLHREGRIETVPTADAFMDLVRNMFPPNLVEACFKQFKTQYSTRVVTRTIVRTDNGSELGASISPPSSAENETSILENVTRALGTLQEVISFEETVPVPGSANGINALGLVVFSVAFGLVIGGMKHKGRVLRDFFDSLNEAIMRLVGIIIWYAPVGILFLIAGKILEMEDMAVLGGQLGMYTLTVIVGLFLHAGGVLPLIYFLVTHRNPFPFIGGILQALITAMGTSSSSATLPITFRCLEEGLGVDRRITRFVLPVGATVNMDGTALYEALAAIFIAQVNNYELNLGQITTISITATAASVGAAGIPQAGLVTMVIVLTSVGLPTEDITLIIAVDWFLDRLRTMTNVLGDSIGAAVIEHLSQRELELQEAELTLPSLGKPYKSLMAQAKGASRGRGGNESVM
From the text: as §1

GST-EAAC1 = target: T3, GST-EAAC1 (Rattus norvegicus, UniProt P51907); assay: in vitro cell-free binding to immobilized GST-EAAC1; conditions: [35S]-labeled protein; not to GST alone
T3 construct: made in house; BL21 is described for GST-EAAT4
T3 sequence (P51907 1-523): T1 sequence (P51907 1-523)
Experimental: The interaction of GTRAP3-18 with EAAC1 was examined using in vitro and in vivo methods. For in vitro cell-free binding, EAAC1 was expressed as a fusion protein with glutathione S-transferase (GST), and GTRAP3-18 was produced and labeled with [^35S]-methionine by in vitro transcription and translation. Purified GST or GST-EAAC1 fusion proteins immobilized on glutathione-Sepharose were incubated with [^35S]-labeled GTRAP3-18 protein.

[7] = eleven days of intraventricular treatment
[8] = antisense 50-100 ng/day intraventricular for 7-10 days, retinoic acid 2.5 μM

`Cn1cnc2c(NCc3ccccc3)nc(NCCO)nc21` [olomucine, reference compound] was tested, and the “inhibition of Na+-dependent glutamate uptake by PCTAIRE” value (EAAT4 [1]; 100 μM for 30 minutes at 37° C. before uptake assay) was “reversible”.

In the case of “PCTAIRE: serine/threonine kinase related to the cyclin-dependent kinase 2 (cdk2) family, interacts with amino terminus of EAAT4”, the “Na+-dependent glutamate uptake” value (EAAT4 [1]; 1.0 μg pCMV PCTAIRE plasmid, 48 hours) is reported as “diminished”.

`CC(C)[C@H]1CN[C@H](C(=O)O)[C@H]1CC(=O)O` [Dihydrokainic acid, reference compound] was tested, and the “effect of inhibitor on the antisense-induced increase in cortical glutamate uptake” value (GTRAP3-18 [2]; in vivo) was “not altered”, the “effect of inhibitor on the retinoic acid-induced decrease of glutamate uptake” value (GTRAP3-18 [3]; concentration that predominantly effects GLT-1) was “not altered” and the “effect on cerebellar glutamate uptake” value (EAAT4 [4]) was “no effect”.

In the case of “5′-GTGAACCTTGCCCGCTC-3′ (chemistry not fully specified) [sense GTRAP3-18, sense control phosphodiester oligonucleotide, reference compound]”, the cortical glutamate uptake (GTRAP3-18 [2]; [7]) is reported as “not altered”.

For “5′-GAGCGGGGCAAGGTTCAC-3′ (DNA, all phosphodiester, methylation of C not given here) [antisense GTRAP3-18, phosphodiester oligonucleotide antisense to the 5′-GTRAP3-18 transcript]”, the “Vmax of DHK-insensitive cortical glutamate uptake” value (GTRAP3-18 [2]; antisense-treated animals, control 1.08) was 1.08 nmol/min/mg protein, the Km (GTRAP3-18 [2]; antisense-treated animals, control Km=19.7 μM, read-out: Km of DHK-insensitive cortical glutamate uptake) was 10 µM and the GTRAP3-18 protein level (GTRAP3-18 [2]; [7]) was “reduction”. For the same molecule, the cortical glutamate uptake (GTRAP3-18 [2]; [7]) was “significant increase”, the “inhibition of glutamate transport seen with retinoic acid treatment” value (GTRAP3-18 [3]; [8]) was “blocks” and the “retinoic acid induction of GTRAP3-18” value (GTRAP3-18 [3]; [8]) was “blocks”. For the same molecule, the EAAC1 protein level (GTRAP3-18 [5]) was “not affected”, the “endogenous GTRAP3-18 protein level” value (GTRAP3-18 [5]) was “reduced” and the glutamate transport activity (GTRAP3-18 [5]) was “elevated”.

B1: GTRAP3-18: glutamate transporter EAAC1 associated protein, 188 amino acids (SEQ ID NO:6), rat JWA protein homologue (protein)
chain: MDVNLAPLRAWDDFFPGSDRFARPDFRDISKWNNRVVSNLLYYQTNYLVVAAMMISVVGFLSPFNMILGGIIVVLVFTGFVWAAHNKDILRRMKKQYPTAFVMVVMLASYFLISMFGGVMVFVFGITFPLLLMFIHASLRLRNLKNKLENKMEGIGLKKTPMGIILDALEQQEDSINKFADYISKARE
modifications: Rattus
For B1, the “Vmax of glutamate transport” value (EAAC1; EAAC1 and GTRAP3-18 co-expressing cells, EAAC1 only 1.02) was 0.99 nmol/min/mg protein, the Km (EAAC1; EAAC1 and GTRAP3-18 co-expressing cells, EAAC1 only Km=9 μM, n=4) was 40 µM and the “effect on EAAC1-mediated glutamate transport” value (EAAC1; HEK293 cells, 72 hrs after transfection, n=6) was “inhibited”. For the same molecule, the “decrease in affinity (Eadie-Scatchard plot of glutamate transport)” value (EAAC1; transfected HEK293 cells, n=4) was 4-10 fold, the “effect on EAAT4 glutamate transport” value (EAAT4 [6]) was “no effect” and the “binding to immobilized GST-EAAC1” value (GST-EAAC1) was “specifically binds”.
